{"source": "patent US9314030B2", "about": "“Particulate wood preservative and method for producing same” (Koppers Performance Chemicals Inc., priority 2004, dated 2016)", "key": {"[1]": {"assay": "Wet milling of chlorothalonil with 0.5-0.6 mm cerium-doped zirconium oxide beads, particle size", "format": "physicochemical", "procedure": "The laboratory-sized vertical mill was provided by CB Mills, model# L-3-J. The mill has a 2 liter capacity and is jacketed for cooling. Unless otherwise specified, ambient water was cycled through the mill cooling jacket during operation. The internal dimensions are 3.9″ diameter by 9.1″ height. The mill uses a standard 3×3″ disk agitator (mild steel) on a stainless steel shaft, and it operates at 2,620 rpm.\nThe media used in this Example was 0.4-0.5 mm zirconium silicate beads supplied by CB Mills. All particle size determinations were made with a Sedigraph™ 5100T manufactured by Micromeritics, which uses x-ray detection and bases calculations of size on Stokes' Law.\nThe same mill and conditions were used in this experiment as in experiment 1. However, the grinding media was 0.5-0.6 mm cerium-doped zirconium oxide beads obtained from CB Mills. The density of the cerium doped zirconium oxide is ˜6.0 g/cm^3. […] The total batch weight was about 600 g."}, "[2]": {"conditions": "treated wood; cited from earlier work"}, "[3]": {"conditions": "0.4-0.5 mm zirconium silicate, milling time 0 min"}, "[4]": {"conditions": "0.4-0.5 mm zirconium silicate, milling time 30 min"}, "[5]": {"conditions": "0.4-0.5 mm zirconium silicate, milling time 60 min"}, "[6]": {"conditions": "0.4-0.5 mm zirconium silicate, milling time 90 min"}, "[7]": {"conditions": "0.4-0.5 mm zirconium silicate, milling time 120 min"}, "[8]": {"conditions": "0.4-0.5 mm zirconium silicate, milling time 150 min"}, "[9]": {"conditions": "0.4-0.5 mm zirconium silicate, milling time 180 min"}, "[10]": {"conditions": "0.4-0.5 mm zirconium silicate, milling time 270 min"}, "[11]": {"conditions": "0.4-0.5 mm zirconium silicate, milling time 450 min"}, "[12]": {"conditions": "0.5-0.6 mm cerium-doped zirconium oxide, milling time 0 min"}, "[13]": {"conditions": "0.5-0.6 mm cerium-doped zirconium oxide, milling time 90 min"}, "[14]": {"conditions": "0.5-0.6 mm cerium-doped zirconium oxide, milling time 240 min"}, "[15]": {"conditions": "0.5 mm zirconia milling media, in 90 minutes"}, "[16]": {"conditions": "0.5 mm zirconia milling media, in 6 hours"}}, "note": "Where two headings read alike, the source gives them in different places.", "data": [{"molecule": "N#Cc1c(Cl)c(Cl)c(Cl)c(C#N)c1Cl", "note": "[chlorothalonil]", "values": [{"measurement": "d90", "setting": "0.4-0.5 mm zirconium silicate, at 60 minutes", "value": "about 2 microns"}, {"measurement": "Particle Size Data-Volume % With Diamter Greater Than 2 μm", "setting": "[3]", "value": 95, "unit": "Volume %"}, {"measurement": "Particle Size Data-Volume % With Diamter Greater Than 5 μm", "setting": "[3]", "value": 48, "unit": "Volume %"}, {"measurement": "Particle Size Data-Volume % With Diamter Greater Than 10 μm", "setting": "[3]", "value": 10, "unit": "Volume %"}, {"measurement": "d50", "setting": "[3]", "value": 4.9, "unit": "μm"}, {"measurement": "Particle Size Data-Volume % With Diamter Greater Than 1 μm", "setting": "[4]", "value": 68, "unit": "Volume %"}, {"measurement": "Particle Size Data-Volume % With Diamter Greater Than 2 μm", "setting": "[4]", "value": 21, "unit": "Volume %"}, {"measurement": "Particle Size Data-Volume % With Diamter Greater Than 5 μm", "setting": "[4]", "value": 4, "unit": "Volume %"}, {"measurement": "Particle Size Data-Volume % With Diamter Greater Than 10 μm", "setting": "[4]", "value": 0, "unit": "Volume %"}, {"measurement": "d50", "setting": "[4]", "value": 1.3, "unit": "μm"}, {"measurement": "Particle Size Data-Volume % With Diamter Greater Than 1 μm", "setting": "[5]", "value": 50, "unit": "Volume %"}, {"measurement": "Particle Size Data-Volume % With Diamter Greater Than 2 μm", "setting": "[5]", "value": 11, "unit": "Volume %"}, {"measurement": "Particle Size Data-Volume % With Diamter Greater Than 5 μm", "setting": "[5]", "value": 2, "unit": "Volume %"}, {"measurement": "Particle Size Data-Volume % With Diamter Greater Than 10 μm", "setting": "[5]", "value": 4, "unit": "Volume %"}, {"measurement": "d50", "setting": "[5]", "value": 1.0, "unit": "μm"}, {"measurement": "Particle Size Data-Volume % With Diamter Greater Than 1 μm", "setting": "[6]", "value": 94, "unit": "Volume %"}, {"measurement": "Particle Size Data-Volume % With Diamter Greater Than 2 μm", "setting": "[6]", "value": 22, "unit": "Volume %"}, {"measurement": "Particle Size Data-Volume % With Diamter Greater Than 5 μm", "setting": "[6]", "value": 23, "unit": "Volume %"}, {"measurement": "Particle Size Data-Volume % With Diamter Greater Than 10 μm", "setting": "[6]", "value": 18, "unit": "Volume %"}, {"measurement": "d50", "setting": "[6]", "value": 1.4, "unit": "μm"}, {"measurement": "Particle Size Data-Volume % With Diamter Greater Than 2 μm", "setting": "[7]", "value": 4, "unit": "Volume %"}, {"measurement": "Particle Size Data-Volume % With Diamter Greater Than 5 μm", "setting": "[7]", "value": 0, "unit": "Volume %"}, {"measurement": "Particle Size Data-Volume % With Diamter Greater Than 10 μm", "setting": "[7]", "value": 2, "unit": "Volume %"}, {"measurement": "Particle Size Data-Volume % With Diamter Greater Than 1 μm", "setting": "[8]", "value": 58, "unit": "Volume %"}, {"measurement": "Particle Size Data-Volume % With Diamter Greater Than 2 μm", "setting": "[8]", "value": 6, "unit": "Volume %"}, {"measurement": "Particle Size Data-Volume % With Diamter Greater Than 5 μm", "setting": "[8]", "value": 2, "unit": "Volume %"}, {"measurement": "Particle Size Data-Volume % With Diamter Greater Than 10 μm", "setting": "[8]", "value": 0, "unit": "Volume %"}, {"measurement": "Particle Size Data-Volume % With Diamter Greater Than 1 μm", "setting": "[9]", "value": 53, "unit": "Volume %"}, {"measurement": "Particle Size Data-Volume % With Diamter Greater Than 2 μm", "setting": "[9]", "value": 7, "unit": "Volume %"}, {"measurement": "Particle Size Data-Volume % With Diamter Greater Than 5 μm", "setting": "[9]", "value": 2, "unit": "Volume %"}, {"measurement": "Particle Size Data-Volume % With Diamter Greater Than 10 μm", "setting": "[9]", "value": 2, "unit": "Volume %"}, {"measurement": "Particle Size Data-Volume % With Diamter Greater Than 1 μm", "setting": "[10]", "value": 54, "unit": "Volume %"}, {"measurement": "Particle Size Data-Volume % With Diamter Greater Than 2 μm", "setting": "[10]", "value": 8, "unit": "Volume %"}, {"measurement": "Particle Size Data-Volume % With Diamter Greater Than 5 μm", "setting": "[10]", "value": 0, "unit": "Volume %"}, {"measurement": "Particle Size Data-Volume % With Diamter Greater Than 10 μm", "setting": "[10]", "value": 2, "unit": "Volume %"}, {"measurement": "Particle Size Data-Volume % With Diamter Greater Than 1 μm", "setting": "[11]", "value": 56, "unit": "Volume %"}, {"measurement": "Particle Size Data-Volume % With Diamter Greater Than 2 μm", "setting": "[11]", "value": 21, "unit": "Volume %"}, {"measurement": "Particle Size Data-Volume % With Diamter Greater Than 5 μm", "setting": "[11]", "value": 8, "unit": "Volume %"}, {"measurement": "Particle Size Data-Volume % With Diamter Greater Than 10 μm", "setting": "[11]", "value": 12, "unit": "Volume %"}, {"measurement": "d50", "setting": "0.4-0.5 mm zirconium silicate, within about one hour", "value": "~1", "unit": "micron"}, {"measurement": "starting particle size", "setting": "before wet milling", "value": "3-4 microns"}, {"measurement": "Particle Size Data-Volume % With Diamter Greater Than 1 μm", "setting": "[1]; [12]", "value": 92, "unit": "Volume %"}, {"measurement": "Particle Size Data-Volume % With Diamter Greater Than 2 μm", "setting": "[1]; [12]", "value": 77, "unit": "Volume %"}, {"measurement": "Particle Size Data-Volume % With Diamter Greater Than 5 μm", "setting": "[1]; [12]", "value": 30, "unit": "Volume %"}, {"measurement": "Particle Size Data-Volume % With Diamter Greater Than 10 μm", "setting": "[1]; [12]", "value": 8, "unit": "Volume %"}, {"measurement": "Particle Size Data-Volume % With Diamter Greater Than 0.4 μm", "setting": "[1]; [13]", "value": 22, "unit": "Volume %"}, {"measurement": "Particle Size Data-Volume % With Diamter Greater Than 1 μm", "setting": "[1]; [13]", "value": 3, "unit": "Volume %"}, {"measurement": "Particle Size Data-Volume % With Diamter Greater Than 2 μm", "setting": "[1]; [13]", "value": 3, "unit": "Volume %"}, {"measurement": "Particle Size Data-Volume % With Diamter Greater Than 5 μm", "setting": "[1]; [13]", "value": 3, "unit": "Volume %"}, {"measurement": "Particle Size Data-Volume % With Diamter Greater Than 10 μm", "setting": "[1]; [13]", "value": 3, "unit": "Volume %"}, {"measurement": "d50", "setting": "[1]; [13]", "value": 0.31, "unit": "μm"}, {"measurement": "Particle Size Data-Volume % With Diamter Greater Than 0.2 μm", "setting": "[1]; [14]", "value": 51, "unit": "Volume %"}, {"measurement": "Particle Size Data-Volume % With Diamter Greater Than 0.4 μm", "setting": "[1]; [14]", "value": 3, "unit": "Volume %"}, {"measurement": "Particle Size Data-Volume % With Diamter Greater Than 1 μm", "setting": "[1]; [14]", "value": 3, "unit": "Volume %"}, {"measurement": "Particle Size Data-Volume % With Diamter Greater Than 2 μm", "setting": "[1]; [14]", "value": 2, "unit": "Volume %"}, {"measurement": "Particle Size Data-Volume % With Diamter Greater Than 5 μm", "setting": "[1]; [14]", "value": 1, "unit": "Volume %"}, {"measurement": "Particle Size Data-Volume % With Diamter Greater Than 10 μm", "setting": "[1]; [14]", "value": 0, "unit": "Volume %"}, {"measurement": "d50", "setting": "[1]; [14]", "value": 0.21, "unit": "μm"}, {"measurement": "d50", "setting": "[1]; [15]", "value": "less than 1 micron"}, {"measurement": "d95", "setting": "[1]; [15]", "value": "less than 1 micron"}, {"measurement": "d50", "setting": "[1]; [16]", "value": "less than 0.3 microns"}, {"measurement": "d95", "setting": "[1]; [16]", "value": "less than 0.4 microns"}]}, {"molecule": "copper citrate", "values": [{"measurement": "copper in leachate relative to CCA baseline", "setting": "[2]", "value": "over fifteen times the baseline concentration"}]}]}
